{
  "source": "patent US12521395B2",
  "about": "“Gem-disubstituted heterocyclic compounds and their use as IDH inhibitors” (NERVIANO MEDICAL SCIENCES S.R.L., priority 2019, dated 2026)",
  "key": {"IDH1^R132H": {"target": "IDH1^R132H (Homo sapiens, UniProt O75874, R132H)", "sequence (O75874 whole entry R132H)": "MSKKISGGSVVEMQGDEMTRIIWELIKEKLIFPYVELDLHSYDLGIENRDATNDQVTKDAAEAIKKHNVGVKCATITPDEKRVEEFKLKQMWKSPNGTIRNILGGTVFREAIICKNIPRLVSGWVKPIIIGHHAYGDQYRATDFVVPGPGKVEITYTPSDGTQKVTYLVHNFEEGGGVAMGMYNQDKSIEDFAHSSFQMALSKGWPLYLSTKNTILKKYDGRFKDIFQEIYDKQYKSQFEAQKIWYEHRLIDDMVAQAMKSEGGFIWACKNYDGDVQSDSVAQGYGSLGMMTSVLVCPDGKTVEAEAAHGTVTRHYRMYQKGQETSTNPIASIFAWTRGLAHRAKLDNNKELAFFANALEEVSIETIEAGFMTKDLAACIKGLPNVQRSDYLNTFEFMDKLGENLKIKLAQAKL", "assay": "NADPH depletion assay (diaphorase/resazurin), IDH1 R132H", "format": "biochemical", "conditions": "15 min preincubation, 60 min reaction, room temperature", "experimental": "(§1) IDH mutated enzyme activity converting alpha-ketoglutarate to 2-hydroxyglutaric acid is measured using a NADPH depletion assay. In the assay the remaining cofactor is measured at the end of the reaction with the addition of a catalytic excess of diaphorase and resazurin, to generate a fluorescent signal in proportion to the amount of NADPH remaining. IDH1 WT enzyme as well as mutated isoforms IDH1^R132H, IDH1^R132C, and IDH2^R172K enzymes are commercially available proteins (see e.g. Sino Biological, Abcam, Active Motif or Creative BioMart).\n(§2) IDH1^R132H homodimer enzyme are diluted to 8 nM, in 10 μL of Assay Buffer (150 mM NaCl, 50 mM Tris-HCl pH 7.6, 10 mM MgCl2, 0.001% Triton X-100, 4 mM β-mercaptoethanol); 0.2 μL of test compound, previously serially diluted 1 to 3, >10 experimental points from 1 mM in DMSO, is added and the mixture is incubated for 15 minutes at room temperature. The reaction is started with the addition of 10 μL of Substrate Mix (12 μM NADPH, 3.4 mM alpha-ketoglutarate in Assay Buffer) and the mixture is incubated for 60 minutes at room temperature. The reaction is terminated with the addition of 5 μl of Detection Buffer (100 μg/mL diaphorase, 30 μM resazurin, in IX Assay Buffer), and is incubated for 15 minutes before reading on a ViewLux as platereader at Ex544/Em590."}, "IDH1^R132C": {"target": "IDH1^R132C (Homo sapiens, UniProt O75874, R132C)", "sequence (O75874 whole entry R132C)": "as the sequence (O75874 whole entry R132H) above, with H132C counted along it", "assay": "NADPH depletion assay (diaphorase/resazurin), IDH1 R132C", "format": "biochemical", "conditions": "IDH1^R132C 2 nM, alpha-ketoglutarate 0.14 mM; read-out: IDH1^R132C IC50"}, "IDH2^R172K": {"target": "T1, IDH2^R172K (Homo sapiens, UniProt P48735, R172K)", "T1 sequence (P48735 40-452 R172K)": "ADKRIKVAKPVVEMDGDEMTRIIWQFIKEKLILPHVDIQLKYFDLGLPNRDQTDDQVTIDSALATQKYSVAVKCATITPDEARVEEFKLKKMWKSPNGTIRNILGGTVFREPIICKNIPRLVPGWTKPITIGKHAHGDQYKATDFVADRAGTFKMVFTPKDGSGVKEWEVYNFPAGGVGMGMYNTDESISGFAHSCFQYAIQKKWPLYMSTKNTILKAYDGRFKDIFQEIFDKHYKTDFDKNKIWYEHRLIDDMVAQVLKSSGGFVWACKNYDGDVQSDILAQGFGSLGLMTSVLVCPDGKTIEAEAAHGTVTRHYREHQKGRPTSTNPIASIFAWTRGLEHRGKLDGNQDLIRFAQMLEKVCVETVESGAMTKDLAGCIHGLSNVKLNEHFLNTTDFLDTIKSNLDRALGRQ", "assay": "NADPH depletion assay (diaphorase/resazurin), IDH2 R172K", "format": "biochemical", "conditions": "IDH2^R172K 16 nM, alpha-ketoglutarate 0.55 mM", "experimental": "as §1, §2\nCompounds are assayed for their activity against IDH2^R172K following the same assay as above with the following modifications: IDH2^R172K and alpha-ketoglutarate final concentrations in the Assay Buffer is 16 nM and 0.55 mM, respectively."}, "IDH1 wild type enzyme": {"target": "IDH1 wild type enzyme (Homo sapiens, UniProt O75874)", "sequence (O75874 whole entry)": "as the sequence (O75874 whole entry R132H) above, with H132R counted along it", "assay": "Enzymatic assay for IDH1 wild-type (NADPH forming assay)", "format": "biochemical", "conditions": "0.016 nM IDH1WT, 15 min preincubation", "experimental": "IDH1WT enzymatic activity converting isocitric acid to alpha-ketoglutarate is measured using a NADPH forming assay. In the assay the forming cofactor is measured in continuous with the addition of a catalytic excess of diaphorase and resazurin, to generate a fluorescent signal in proportion to the amount of NADPH forming.\nCompounds were preincubated with the enzyme, then the reaction was started by the addition of NADP+, isocitrate, diaphorase and a corresponding substrate, resazurin. Diaphorase reduces resazurin to the highly fluorescent resorufin with the concomitant oxidation of NADPH to NADP. Specifically, 0.2 μL of test compound, previously serially diluted 1 to 3, >10 experimental points from 1 mM in DMSO, was added to 0.016 nM IDH1WT enzyme in 10 μL of Assay Buffer (150 mM NaCl, 50 mM Tris-HCl pH 7.6, 10 mM MgCl2, 0.001% Triton X-100, 4 mM β-mercaptoethanol); the mixture is incubated for 15 minutes at room temperature. The reaction is started with the addition of 10 μL of Substrate Mix (400 μM NADP^+, 40 μM iso-citrate, 5 ugr/mL Diaphorase and 7 μM resazurin in Assay Buffer), the mixture is incubated at room temperature and the reaction is reading on a ViewLux as platereader at Ex544/Em590 in continuous."}, "[1]": {"system": "cell lines HT-1080 (IDH1^R132C)", "assay": "Cellular assay: inhibition of 2HG production, LC-MS/MS", "format": "cell-based", "conditions": "Homo sapiens, 72 hr incubation, 2-HG in cell culture media, read-out: HT1080 2-HG IC50", "experimental": "Cell lines HT-1080 (commercially available) are maintained in E-MEM 10% FCS and incubated at 37° C. in a humidified 5% CO2 atmosphere.\nCells are seeded into 96 well black flat bottom plates at a density of 500 cells/well in 100 μL complete medium. After 24 hr the medium is replaced with 200 μL of fresh medium and compounds (dissolved into DMSO) are administrated to the cells using D300E Digital Dispenser (Tecan).\nAfter 72 hr of incubation 100 μL from each well are collected and used for 2HG (R(−)-2-hydroxyglutarate) quantification. Levels of 2-HG in cell culture media are determined by LC-MS/MS. Cell supernatants (100 μL/well) are treated with 1 M aqueous trichloroacetic acid containing 130 μM of the internal standard 2-HG-d3 (20 μL/well) in a 96-well plate. The plates are sealed, mildly vortexed for 60 minutes, centrifuged at 4,000 RPM for 15 minutes, placed in a refrigerated autosampler taking care not to shake them, and aliquots of the upper part of the samples are directly injected in the chromatographic system. Calibration standards are obtained by ten folds dilution of aqueous 2-HG stock solutions with blank cell culture medium and denatured exactly in the same way as described above for samples. Samples and standards are assayed for 2-HG by reversed phase chromatography on a C18 column eluted with aqueous 0.15% formic acid and briefly washed with 90% methanol at the end of the run. 2-HG is determined by negative ion electrospray ionization with the internal standard method on a triple quadrupole mass spectrometer monitoring the MRM transitions 147>129 (2-HG) and 150>132 (2-HG-d3).\n2-HG inhibition was calculated by comparing treated versus control data using Assay Explore (Symyx) software, with IC50 determined using a sigmoidal fitting algorithm."}},
  "data": [
    {"molecule": "C=CC(=O)N1CCN(C2(c3ccc(C(C)(C)Nc4ncc5ccc(=O)n(C(C)C)c5n4)cc3)CCC(F)(F)CC2)CC1", "note": "[cpd 52, 2-[(2-{4-[1-(4-acryloylpiperazin-1-yl)-4,4-difluorocyclohexyl]phenyl}propan-2-yl)amino]-8-(propan-2-yl)pyrido[2,3-d]pyrimidin-7(8H)-one]", "values": [
      {"measurement": "IC50", "setting": "IDH1^R132H", "result": 14, "unit": "nM"},
      {"measurement": "IC50", "setting": "IDH1^R132C", "result": 9, "unit": "nM"},
      {"measurement": "IC50", "setting": "IDH2^R172K", "result": 322, "unit": "nM"},
      {"measurement": "IC50", "setting": "IDH1 wild type enzyme", "result": 321, "unit": "nM"},
      {"measurement": "IC50", "setting": "[1]", "result": 4, "unit": "nM"}
    ]}
  ]
}
